Source: patent US20010025105A1, “Certain substituted 1-aryl-3-piperazine-1'-yl propanones” (Molecular Geriatarics Corporation, priority 1997, published 2001)

Test system: microtubule cytoskeleton of human CG neuroblastoma cells
Assay: Antimicrotubule activity, tubulin immunofluorescence microscopy
Assay type: cell-based
Details: 2 hr at 37° C., read-out: Concentration where microtubule destabilization occurs

## Cl.Cl.O=C(CCN1CCN(Cc2ccccc2)CC1)c1ccc(F)c2ccccc12 [Example 21, 1-(4″-Fluoronaphth-1″-yl)-3-(4′-benzyl-1′-piperazinyl)-1-propanone dihydrochloride]
  minimal effective concentration: 20 µM
